Test results published in ChEMBL document CHEMBL1151113, “Umuhengerin, a new antimicrobially active flavonoid from Lantana trifolia” (1988).
≈ marks a conversion by molar mass, not a printed value. Calls of active or inactive are those of the source. The calls are words filed in the database; no cut-off is given here.

Key:
Proteus vulgaris = assay: Antibacterial activity against Proteus vulgaris; type: functional
Micrococcus = assay: Antibacterial activity against Micrococcus sp.; type: functional
[1] = tested on: Mycolicibacterium fortuitum; assay: Antibacterial activity against Mycobacterium fortuitum; type: functional
Klebsiella aerogenes = assay: Antibacterial activity against Enterobacter aerogenes; type: functional
Poliovirus 1 = assay: Antiviral activity against Human poliovirus 1 1A/S2 in african green monkey Vero cells; type: functional, organism-based
Staphylococcus aureus = assay: Antibacterial activity against Staphylococcus aureus ATCC 25923; type: functional
Semliki Forest virus = assay: Antiviral activity against Semliki forest virus in african green monkey Vero cells; type: functional, organism-based
Streptococcus pneumoniae = assay: Antibacterial activity against Streptococcus pneumoniae; type: functional
Escherichia coli = assay: Antibacterial activity against Escherichia coli; type: functional
Candida albicans = assay: Antifungal activity against Candida albicans; type: functional
Pseudomonas aeruginosa = assay: Antibacterial activity against Pseudomonas aeruginosa; type: functional
Aspergillus niger = assay: Antifungal activity against Aspergillus niger; type: functional
Aspergillus fumigatus = assay: Antifungal activity against Aspergillus fumigatus; type: functional
Coxsackievirus = assay: Antiviral activity against Coxsackievirus B2 in african green monkey Vero cells; type: functional, organism-based
Human alphaherpesvirus 1 = assay: Antiviral activity against Herpes simplex virus 1 in african green monkey Vero cells; type: functional, organism-based
Neisseria gonorrhoeae = assay: Antibacterial activity against Neisseria gonorrhoeae; type: functional
Microsporum canis = assay: Antifungal activity against Microsporum canis; type: functional
Shigella flexneri = assay: Antibacterial activity against Shigella flexneri; type: functional
Streptococcus pyogenes = assay: Antibacterial activity against Streptococcus pyogenes; type: functional
Salmonella typhimurium = assay: Antibacterial activity against Salmonella Typhimurium; type: functional, Salmonella enterica subsp. enterica serovar Typhimurium; conditions: Salmonella enterica
Aspergillus flavus = assay: Antifungal activity against Aspergillus flavus; type: functional
Trichophyton rubrum = assay: Antifungal activity against Trichophyton rubrum; type: functional
[2] = tested on: Trichophyton mentagrophytes; assay: Antifungal activity against Trichophyton mentagrophytes; type: functional
Klebsiella pneumoniae = assay: Antibacterial activity against Klebsiella pneumoniae; type: functional
Streptococcus viridans = assay: Antibacterial activity against Streptococcus viridans; type: functional
Candida tropicalis = assay: Antifungal activity against Candida tropicalis; type: functional
Serratia marcescens = assay: Antibacterial activity against Serratia marcescens; type: functional

COc1cc(-c2cc(=O)c3c(O)c(OC)c(OC)cc3o2)cc(OC)c1OC [GRADENIN A]
MIC (Proteus vulgaris): > 200 µg/mL | MIC (Micrococcus): > 200 µg/mL | MIC [1]: > 200 µg/mL | MIC (Klebsiella aerogenes): > 200 µg/mL | Activity (Poliovirus 1): inactive | MIC (Staphylococcus aureus): 20 µg/mL (≈ 51.5 µM) | Activity (Semliki Forest virus): inactive | MIC (Streptococcus pneumoniae): > 200 µg/mL | MIC (Escherichia coli): > 200 µg/mL | MIC (Candida albicans): > 200 µg/mL | MIC (Pseudomonas aeruginosa): > 200 µg/mL | MIC (Aspergillus niger): 200 µg/mL (≈ 515 µM) | MIC (Aspergillus fumigatus): 200 µg/mL (≈ 515 µM) | Activity (Coxsackievirus): inactive | Activity (Human alphaherpesvirus 1): inactive | MIC (Neisseria gonorrhoeae): > 200 µg/mL | MIC (Microsporum canis): 50 µg/mL (≈ 129 µM) | MIC (Shigella flexneri): > 200 µg/mL | MIC (Streptococcus pyogenes): > 200 µg/mL | MIC (Salmonella typhimurium): 5 µg/mL (≈ 12.9 µM) | MIC (Aspergillus flavus): > 200 µg/mL | MIC (Trichophyton rubrum): > 200 µg/mL | MIC [2]: 50 µg/mL (≈ 129 µM) | MIC (Klebsiella pneumoniae): > 200 µg/mL | MIC (Streptococcus viridans): > 200 µg/mL | MIC (Candida tropicalis): 20 µg/mL (≈ 51.5 µM) | MIC (Serratia marcescens): > 200 µg/mL
